In brackets after ≈: the same amount, converted by molar mass.
Tests used:
Assay in all cases: In vitro antibacterial evaluation: minimum inhibitory concentration (MIC), broth dilution method
Format in all cases: cell-based
Staphylococcus sp. = system: Staphylococcus sp.
In short: (§1)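 NCCLS M7-A2 broth dilution; Muller-Hinton II […]; 5×10^5 CFU/mL; 64-0.06 μg/mL. MIC = lowest concentration with no growth.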

Escherichia coli = settings: 18 hours at 35° C.
In short: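 Susceptibility determined by NCCLS-recommended broth dilution (M7-A2), Muller-Hinton II […]. Concentration span 64-0.06 μg/mL, inoculum 5×10^5 CFU/mL. Isolates include strains resistant to methicillin, penicillin and/or vancomycin.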

Streptococcus sp. = settings: 18 hours at 35° C.
In short: as §1

Enterococcus sp. = settings: 18 hours at 35° C.
In short: as §1

[1] = broth dilution, inoculum 5×10^5 CFU/mL

Question: Which results are given for `N=C1NCC(C(O)C2NC(=O)C(Cc3ccc(OC4OC(CO)C(OC5OC6COC(c7ccccc7)OC6C(O)C5O)C(O)C4O)cc3)NC(=O)C(CC3CCCCC3)NC(=O)CNC(=O)C(CO)NC(=O)C(C(O)C3CNC(=N)N3C3OC(CO)C(O)C(O)C3O)NC2=O)N1` (stereo not drawn) [Example 199, Cyclo[3-cyclohexylalanyl-O-[4-O-(4,6-O-benzylidenehexopyranosyl)hexopyranosyl]tyrosyl-3-(2-iminoimidazolidin-4-yl)seryl-3-(3-hexopyranosyl-2-iminoimidazolidin-4-yl)-seryl-serylglycyl]]?
Answer: MIC Staphylococcus aureus (ATCC 29213) (Staphylococcus sp.; strain ATCC 29213): 2 µg/mL (≈ 1.45 µM); MIC Staphylococcus aureus (GC 1131) (Staphylococcus sp.; strain GC 1131): 2 µg/mL (≈ 1.45 µM); MIC Staphylococcus aureus (GC 3051) (Staphylococcus sp.; strain GC 3051): 1 µg/mL (≈ 0.727 µM); MIC Staphylococcus aureus (GC 3053) (Staphylococcus sp.; strain GC 3053): 2 µg/mL (≈ 1.45 µM); MIC Staphylococcus aureus (GC 4541) (Staphylococcus sp.; strain GC 4541): 2 µg/mL (≈ 1.45 µM); MIC Staphylococcus aureus (GC 4542) (Staphylococcus sp.; strain GC 4542): 1 µg/mL (≈ 0.727 µM); MIC Staphylococcus aureus-SMITH (GC 4543) (Staphylococcus sp.; strain GC 4543): 1 µg/mL (≈ 0.727 µM); MIC Staphylococcus aureus (GC 4544) (Staphylococcus sp.; strain GC 4544): 2 µg/mL (≈ 1.45 µM); MIC Staphylococcus aureus (GC 4545) (Staphylococcus sp.; strain GC 4545): 1 µg/mL (≈ 0.727 µM); MIC Staphylococcus haemolyticus (GC 4546) (Staphylococcus sp.; strain GC 4546): 1 µg/mL (≈ 0.727 µM); MIC Coagulase Negative Staphylococcus (GC 4547) (Staphylococcus sp.; strain GC 4547): 2 µg/mL (≈ 1.45 µM); MIC Coagulase Negative Staphylococcus (GC 4548) (Staphylococcus sp.; strain GC 4548): 0.5 µg/mL (≈ 0.364 µM); MIC Coagulase Negative Staphylococcus (GC 4549) (Staphylococcus sp.; strain GC 4549): 0.5 µg/mL (≈ 0.364 µM); MIC Coagulase Negative Staphylococcus (GC 4551) (Staphylococcus sp.; strain GC 4551): 1 µg/mL (≈ 0.727 µM); MIC Escherichia coli (ATCC 25922) (Escherichia coli; Escherichia coli (ATCC 25922)): 64 µg/mL (≈ 46.5 µM); MIC Escherichia coli (GC 4559) (Escherichia coli; Escherichia coli (GC 4559)): 32 µg/mL (≈ 23.3 µM); MIC Escherichia coli (GC 4560) (Escherichia coli; Escherichia coli (GC 4560)): 1 µg/mL (≈ 0.727 µM); MIC Streptococcus agalactiae (GC 4564) (Streptococcus sp.; Streptococcus agalactiae (GC 4564)): <0.12 µg/mL; MIC Streptococcus pneumoniae (ATCC 6301) (Streptococcus sp.; Streptococcus pneumoniae (ATCC 6301)): <0.12 µg/mL; MIC Streptococcus pneumoniae (GC 1894) (Streptococcus sp.; Streptococcus pneumoniae (GC 1894)): <0.12 µg/mL; MIC Streptococcus pneumoniae (GC 4565) (Streptococcus sp.; Streptococcus pneumoniae (GC 4565)): <0.12 µg/mL; MIC Streptococcus pyogenes (GC 4563) (Streptococcus sp.; Streptococcus pyogenes (GC 4563)): <0.12 µg/mL; MIC Streptococcus agalactiae (GC 4564) (Streptococcus sp.; [1]): <0.12 µg/mL; MIC Streptococcus pneumoniae (ATCC 6301) (Streptococcus sp.; [1]): <0.12 µg/mL; MIC Streptococcus pneumoniae (GC 1894) (Streptococcus sp.; [1]): <0.12 µg/mL; MIC Streptococcus pneumoniae (GC 4565) (Streptococcus sp.; [1]): <0.12 µg/mL; MIC Streptococcus pyogenes (GC 4563) (Streptococcus sp.; [1]): <0.12 µg/mL; MIC Enterococcus avium (GC 4558) (Enterococcus sp.; Enterococcus avium (GC 4558)): 2 µg/mL (≈ 1.45 µM); MIC Enterococcus faecalis (ATCC 29212) (Enterococcus sp.; Enterococcus faecalis (ATCC 29212)): 4 µg/mL (≈ 2.91 µM); MIC Enterococcus faecalis (GC 2242) (Enterococcus sp.; Enterococcus faecalis (GC 2242)): 2 µg/mL (≈ 1.45 µM); MIC Enterococcus faecalis (GC 2691) (Enterococcus sp.; Enterococcus faecalis (GC 2691)): 4 µg/mL (≈ 2.91 µM); MIC Enterococcus faecalis (GC 3059) (Enterococcus sp.; Enterococcus faecalis (GC 3059)): 4 µg/mL (≈ 2.91 µM); MIC Enterococcus faecalis (GC 4552) (Enterococcus sp.; Enterococcus faecalis (GC 4552)): 4 µg/mL (≈ 2.91 µM); MIC Enterococcus faecalis (GC 4553) (Enterococcus sp.; Enterococcus faecalis (GC 4553)): 4 µg/mL (≈ 2.91 µM); MIC Enterococcus faecalis (GC 4554) (Enterococcus sp.; Enterococcus faecalis (GC 4554)): 4 µg/mL (≈ 2.91 µM); MIC Enterococcus faecalis (GC 6189) (Enterococcus sp.; Enterococcus faecalis (GC 6189)): 2 µg/mL (≈ 1.45 µM); MIC Enterococcus faecium (GC 2243) (Enterococcus sp.; Enterococcus faecium (GC 2243)): 4 µg/mL (≈ 2.91 µM); MIC Enterococcus faecium (GC 4556) (Enterococcus sp.; Enterococcus faecium (GC 4556)): 4 µg/mL (≈ 2.91 µM); MIC Enterococcus faecium (GC 4557) (Enterococcus sp.; Enterococcus faecium (GC 4557)): 2 µg/mL (≈ 1.45 µM); MIC Enterococcus avium (GC 4558) (Enterococcus sp.; [1]): 2 µg/mL (≈ 1.45 µM); MIC Enterococcus faecalis (ATCC 29212) (Enterococcus sp.; [1]): 4 µg/mL (≈ 2.91 µM); MIC Enterococcus faecalis (GC 2242) (Enterococcus sp.; [1]): 2 µg/mL (≈ 1.45 µM); MIC Enterococcus faecalis (GC 2691) (Enterococcus sp.; [1]): 4 µg/mL (≈ 2.91 µM); MIC Enterococcus faecalis (GC 3059) (Enterococcus sp.; [1]): 4 µg/mL (≈ 2.91 µM); MIC Enterococcus faecalis (GC 4552) (Enterococcus sp.; [1]): 4 µg/mL (≈ 2.91 µM); MIC Enterococcus faecalis (GC 4553) (Enterococcus sp.; [1]): 4 µg/mL (≈ 2.91 µM); MIC Enterococcus faecalis (GC 4554) (Enterococcus sp.; [1]): 4 µg/mL (≈ 2.91 µM); MIC Enterococcus faecalis (GC 6189) (Enterococcus sp.; [1]): 2 µg/mL (≈ 1.45 µM); MIC Enterococcus faecium (GC 2243) (Enterococcus sp.; [1]): 4 µg/mL (≈ 2.91 µM); MIC Enterococcus faecium (GC 4556) (Enterococcus sp.; [1]): 4 µg/mL (≈ 2.91 µM); MIC Enterococcus faecium (GC 4557) (Enterococcus sp.; [1]): 2 µg/mL (≈ 1.45 µM)

Reference: patent US8247211B2, “Glycopeptide antibiotics” (American Cyanamid Company, priority 2001, dated 2012)
